The test deals with HIV-1 NL4-3 viral clone expressing Renilla luciferase. The test can be described thus: microbe, parasite or virus in culture. Format: cell-based. The following applies: Human immunodeficiency virus 1, NL43, MT2, 96 h. The procedure: Protocol for MT-2 Spread Assay
The present assay was used to screen candidate antiviral compounds by quantification of virus spread and production over several rounds of infection in vitro. MT-2, a HIV-1 permissive human T-cell line, was seeded in microtiter plates and was simultaneously treated with serially diluted compound and inoculated with a HIV-1 NL4-3 viral clone engineered to express Renilla luciferase in place of Net Following treatment, the culture was incubated for 96 hours. After the incubation, media was collected and used to estimate relative infectivity on the indicator cell line, TZM-bl. Additionally, viral spread was quantified by measuring luciferase activity via a commercially available luciferase substrate. In parallel, MT-2 cells were seeded and inoculated with mock virus in the presence of serially diluted compound. Compound toxicity was quantified 96 hours after treatment with AlamarBlue.
MT-2 (NIH Aids reagent program 237) cells were grown and maintained in an incubator at 37° C. with 5% CO2 using a basal medium of RPMI-1640 supplemented with 10% FBS. Cells were seeded in 100 μl at 2×10^4 cells/well in white walled 96-well microtiter plates. Candidate compounds were 3-fold serially diluted in the appropriate solvent. Solvent without compound was used as a no drug reference. Cells were inoculated at a multiplicity of 0.027 with an HIV-1 NL4-3 virus stock engineered to express Renilla luciferase in place of Net Diluted virus stock was first added to serially diluted compound. Compound and virus were delivered to cells in an equal volume (100 μl) and treated cultures were returned to the incubator for 96 hours. In parallel, plates for cytotoxicity estimates were prepared in the same way except cells were plated in clear walled 96-well microtiter plates and were mock infected.
At 96 hours post infection, 100 μl virus containing culture supernatant was collected from the treated and infected cultures and serially diluted in DMEM supplemented with 10% FBS, 1% sodium pyruvate, and 20 μg/ml DEAE dextran. One day prior, TZM-bl (ATCC PTA-5659) were cultured in basal medium of DMEM supplemented with 10% FBS and 1% sodium pyruvate and seeded at 7.5×10^3 cells/well in black walled 96-well microtiter plates. Diluted virus containing culture supernatant was transferred to TZM-bl cultures and incubated for 48 hours at 37° C. with 5% CO2. Infected TZM-bl cultures were fixed for 5 minutes with a 1% formaldehyde/0.2% gluteraldehyde/PBS solution then washed three times with PBS. Fixed cultures were incubated at 37° C. for 25 minutes with a 200 μg/ml MUG (4-Methylumbelliferyl β-D-[…])/DMEM solution. The reaction was stopped with an equal volume of 1M sodium carbonate and read at 360, 449 nm on fluorescence plate reader (Biotek).
At 96 hours post infection, 100 μl of culture supernatant was removed from the treated and infected cultures and EnduRen live cell substrate (Promega) was added at a final concentration 1.3 μg/ml. Cells were incubated for 1.5 hours at 37° C. with 5% CO2 then read on a luminescence plate reader (Biotek).
For all assays, data was imported into Accelrys Assay Explorer 3.3. In Assay Explorer, % inhibition (antiviral or cytotoxicity) was calculated using the solvent control as a reference by the following equation: 1−(SignalCompound/SignalReference). The % Inhibition and compound concentration data was fitted using the following 4-parameter logistic model (Assay Explorer model 42):
[formula] where X is compound concentration, Y is % inhibition, D is the maximum % Inhibition (constrained to 100%), C is IC50 value or inflection point, B is the hill slope, and A is the minimum % inhibition (constrained to 0%). The IC50 value is reported as the EC50 or CC50 depending on the assay endpoint. EC50 represents the effective concentration at which virus replication is inhibited by 50 percent. CC50 represents the concentration that results in the death of 50 percent of the host cells. […]

On to `COc1cc(C)c(/C=C/C2NCCc3cc(OCc4ccccc4)c(OC)cc32)cc1OCc1ccccc1` (centres unmarked) [AF, 6-benzyloxy-1-[(E)-2-(5-benzyloxy-4-methoxy-2-methyl-phenyl)vinyl]-7-methoxy-1,2,3,4-tetrahydroisoquinoline], for which a half-maximal response (EC50) required 83 nM.

For the compound `COc1cc2c(cc1OCc1ccccc1)CCNC2/C=C/c1cc(OC)c(OCc2ccccc2)c(OC)c1` (centres unmarked) [AP, 6-Benzyloxy-1-[(E)-2-(4-benzyloxy-3,5-dimethoxy-phenyl)vinyl]-7-methoxy-1,2,3,4-tetrahydroisoquinoline], the EC50 (as a rule, the concentration giving half of the maximal effect) worked out at 970 nM.

`COc1cc(OC)c(OC)cc1/C=C/C1NCCc2cc(OCc3ccccc3)c(OC)cc21` (centres unmarked) [AQ, 6-Benzyloxy-7-methoxy-1-[(E)-2-(2,4,5-trimethoxyphenyl)vinyl]-1,2,3,4-tetrahydroisoquinoline] displayed an EC50 of 15.1 nM.

`COc1ccc(/C=C/C2NCCc3cc(OCc4ccccc4)c(OC)cc32)cc1Br` (centres unmarked) [AR, 6-Benzyloxy-1-[(E)-2-(3-bromo-4-methoxy-phenyl)vinyl]-7-methoxy-1,2,3,4-tetrahydroisoquinoline] gave an EC50 of 800 nM.

As to `COc1cc(/C=C/C2NCCc3cc(OCc4ccccc4)c(OC)cc32)cc(OC)c1` (centres unmarked) [AT, 6-Benzyloxy-1-[(E)-2-(3,5-dimethoxyphenyl)vinyl]-7-methoxy-1,2,3,4-tetrahydroisoquinoline], the EC50 came out at 770 nM.

The compound `COc1cc(/C=C/C2NCCc3cc(OCc4ccccc4)c(OC)cc32)ccn1` (centres unmarked) [AU, 6-benzyloxy-7-methoxy-1-[(E)-2-(2-methoxy-4-pyridyl)vinyl]-1,2,3,4-tetrahydroisoquinoline] gave an EC50 of 1650 nM.

`COc1ccc(/C=C/C2NCCc3cc(OCc4ccccc4)c(OC)cc32)c(OC)c1` (centres unmarked) [AV, 6-Benzyloxy-1-[(E)-2-(2,4-dimethoxyphenyl)vinyl]-7-methoxy-1,2,3,4-tetrahydroisoquinoline] displayed an EC50 of 140 nM.

`COc1cc2c(cc1OCc1ccccc1)CCNC2/C=C/c1ccncc1` (centres unmarked) [AW, 6-Benzyloxy-7-methoxy-1-[(E)-2-(4-pyridyl)vinyl]-1,2,3,4-tetrahydroisoquinoline] showed an EC50 of 3280 nM.

Turning to `COc1ccc(/C=C/C2NCCc3cc(OCc4ccccc4)c(OC)cc32)cn1` (centres unmarked) [AX, 6-Benzyloxy-7-methoxy-1-[(E)-2-(6-methoxy-3-pyridyl)vinyl]-1,2,3,4-tetrahydroisoquinoline], the midpoint of the response, the EC50, lay at 3280 nM.

Regarding `COc1cc2c(cc1OCc1ccccc1)CCNC2c1cc(OCc2ccccc2)c(OC)cc1C` (centres unmarked) [AY, 6-(Benzyloxy)-1-(5-(benzyloxy)-4-methoxy-2-methylphenyl)-7-methoxy-1,2,3,4-tetrahydroisoquinoline], a half-maximal response (EC50) required 4880 nM.

`COc1cc2c(cc1OCc1ccccc1)CCNC2c1ccccc1CNC(=O)OC(C)(C)C` (centres unmarked) [AZ, tert-Butyl N-[[2-(6-benzyloxy-7-methoxy-1,2,3,4-tetrahydroisoquinolin-1-yl)phenyl]methyl]carbamate] showed an EC50 of 2770 nM.

The compound `COc1cc(C)c(/C=C/C2NCCc3cc(OCc4ccccc4)c(OC)cc32)c(C)c1` (centres unmarked) [BA, 6-Benzyloxy-7-methoxy-1-[(E)-2-(4-methoxy-2,6-dimethyl-phenyl)vinyl]-1,2,3,4-tetrahydroisoquinoline] had an EC50 of 497 nM.

As for `COc1cc2c(cc1OCc1ccccc1)CCNC2/C=C/c1cc2c(cc1C)OCO2` (centres unmarked) [BB, 6-Benzyloxy-7-methoxy-1-[(E)-2-(6-methyl-1,3-benzodioxol-5-yl)vinyl]-1,2,3,4-tetrahydroisoquinoline], the EC50 was found to be 54.4 nM.

In turn, `COc1cc2c(cc1OCc1ccccc1)CCNC2/C=C/c1cc2c(cc1C)OCCO2` (centres unmarked) [BC, 6-Benzyloxy-7-methoxy-1-[(E)-2-(7-methyl-2,3-dihydro-1,4-benzodioxin-6-yl)vinyl]-1,2,3,4-tetrahydroisoquinoline] gave an EC50 of 27.1 nM.

Regarding `CCCCOc1ccc(/C=C/C2NCCc3cc(OCc4ccccc4)c(OC)cc32)cc1OC` (centres unmarked) [BD, 6-Benzyloxy-1-[(E)-2-(4-butoxy-3-methoxy-phenyl)vinyl]-7-methoxy-1,2,3,4-tetrahydroisoquinoline], the EC50 stood at 408 nM.

The compound `CCCCOc1cc(/C=C/C2NCCc3cc(OCc4ccccc4)c(OC)cc32)ccc1OC` (centres unmarked) [BE, 6-Benzyloxy-1-[(E)-2-(3-butoxy-4-methoxy-phenyl)vinyl]-7-methoxy-1,2,3,4-tetrahydroisoquinoline] returned an EC50 of 99.8 nM.

Regarding `COc1ccc(/C=C/C2NCCc3cc(OCc4ccccc4)c(OC)cc32)cc1F` (centres unmarked) [BF], a half-maximal response (EC50) required 1020 nM.

`COc1cc2c(cc1OCc1ccccc1)CCNC2/C=C/c1ccc(N(C)C)cc1C` (centres unmarked) [BG, 4-[(E)-2-(6-benzyloxy-7-methoxy-1,2,3,4-tetrahydroisoquinolin-1-yl)vinyl]-N,N,3-trimethyl-aniline] yielded an EC50 of 1650 nM.

As to `COc1cc2c(cc1OCc1ccccc1)CCNC2/C=C/c1cc(OC(F)(F)F)ccc1C` (centres unmarked) [BH, 6-Benzyloxy-7-methoxy-1-[(E)-2-[2-methyl-5-(trifluoromethoxy)phenyl]vinyl]-1,2,3,4-tetrahydroisoquinoline], the EC50 is 1930 nM.

Compound `COc1cc2c(cc1OCc1ccccc1)CCNC2/C=C/c1ccccc1` (centres unmarked) [BI, 6-Benzyloxy-7-methoxy-1-[(E)-styryl]-1,2,3,4-tetrahydroisoquinoline] came in with an EC50 of 2200 nM.

`COc1ccc(/C=C/C2NCCc3cc(OCc4ccccc4)c(OC)cc32)cc1` (centres unmarked) [BJ, 6-Benzyloxy-7-methoxy-1-[(E)-2-(4-methoxyphenyl)vinyl]-1,2,3,4-tetrahydroisoquinoline]: it took 477 nM to reach a half-maximal effect (EC50).

As for `COc1cc2c(cc1OCc1ccccc1)CCNC2/C=C/c1cccc(OCc2ccccc2)c1` (centres unmarked) [BK, 6-Benzyloxy-1-[(E)-2-(3-benzyloxyphenyl)vinyl]-7-methoxy-1,2,3,4-tetrahydroisoquinoline], the EC50 is 260 nM.

`CCCCOc1cc(/C=C/C2NCCc3cc(OCc4ccccc4)c(OC)cc32)c(C)cc1OC` (centres unmarked) [BL, 6-Benzyloxy-1-[(E)-2-(5-butoxy-4-methoxy-2-methyl-phenyl)vinyl]-7-methoxy-1,2,3,4-tetrahydroisoquinoline] registered an EC50 of 52 nM.

As to `COc1cc2c(cc1OCc1ccccc1)CCNC2/C=C/c1ccc2c(c1)CCO2` (centres unmarked) [BM, 6-Benzyloxy-1-[(E)-2-(2,3-dihydrobenzofuran-5-yl)vinyl]-7-methoxy-1,2,3,4-tetrahydroisoquinoline], the EC50 came to 146 nM.

Consider `COc1cc2c(cc1OCc1ccccc1)CCNC2/C=C/c1ccc2occc2c1` (centres unmarked) [BN, 1-[(E)-2-(benzofuran-5-yl)vinyl]-6-benzyloxy-7-methoxy-1,2,3,4-tetrahydroisoquinoline], for which it took 840 nM to reach a half-maximal effect (EC50).

`COc1cc(C)c(/C=C/C2NCCc3cc(OCc4ccccc4)c(OC)cc32)cc1OCCCC(=O)O` (centres unmarked) [BO, 4-[5-[(E)-2-(B-benzyloxy-7-methoxy-1,2,3,4-tetrahydroisoquinolin-1-yl)vinyl]-2-methoxy-4-methyl-phenoxy]butanoic acid] gave an EC50 of 234 nM.

For `COc1cc(F)c(/C=C/C2NCCc3cc(OCc4ccccc4)c(OC)cc32)cc1OC` (centres unmarked) [BP, 6-Benzyloxy-1-[(E)-2-(2-fluoro-4,5-dimethoxy-phenyl)vinyl]-7-methoxy-1,2,3,4-tetrahydroisoquinoline], the concentration for a half-maximal effect (EC50) was 2030 nM.

`COc1ccc(/C=C/C2NCCc3cc(OCc4ccccc4)c(OC)cc32)cc1OC` (centres unmarked) [BQ, 6-Benzyloxy-1-[(E)-2-(3,4-dimethoxyphenyl)vinyl]-7-methoxy-1,2,3,4-tetrahydroisoquinoline] registered an EC50 of 198 nM.

With `COc1ccc(/C=C/C2NCCc3cc(OCc4ccccc4)c(OC)cc32)c(F)c1` (centres unmarked) [BR, 6-Benzyloxy-1-[(E)-2-(2-fluoro-4-methoxy-phenyl)vinyl]-7-methoxy-1,2,3,4-tetrahydroisoquinoline], the EC50 was determined as 1140 nM.

The values above are taken from patent US10195189B2, “2-phenethenyltetrahydro isoquinolines useful as anti-HIV compounds” (priority 2014, dated 2019).
